Assays:
[1] = tested on: LMNA aberrant splicing (MutLMNA-luc cell line); test: Luciferase assay for repression of LMNA aberrant splicing in stable 293 MutLMNA-luc cell line (293FLP LMNA LUC cells #8); format: cell-based; conditions: 48 hours, compared to control untreated MutLMNA-luc cell line, read-out: Increase of luciferase activity
Source text: Advantage has been taken of the luciferase system. The luciferase assay is an extremely sensitive and rapid assay. Linear results are seen over at least eight orders of magnitude of enzyme concentration. Moreover, the luciferase assay is well suited for high-throughput applications. To conduct a Mid-throughput screening (MTS) for compounds repressing LMNA aberrant splicing, we have constructed a plasmid in which exon 11, intron 11 and part of exon 12 of LMNA gene were fused with luciferase cDNA (FIG. 2). Both wild type (WtLMNA-luc)(SEQ ID NO: 1) and mutant (MutLMNA-luc)(SEQ ID NO: 2) substrate harbouring exon 11 mutation have been constructed. In these constructs we have generated a single initiation codon in exon 11 such as correct splicing will lead to luciferase expression, while aberrant splicing will skip the initiation codon and thereby prevent luciferase expression. After transfection in HeLa cells, Luciferase assays (FIG. 2B) and RT-PCR (FIG. 2C) indicate that WtLMNA-luc produces predominantly wild type splicing and large amount of luciferase activity, whereas MutLMNA-luc recapitulate the aberrant splicing profile with reduced luciferase expression (FIGS. 2 B and C, compare Wt and Mut). In order to use this system in MTS, we have generated a stable 293 cell lines containing a single integrated copy of luciferase reporter containing LMNA mutation (MutLMNA-luc cell line) using the flp system from INVITROGEN. This system allows us to perform a MTS for compounds able to enhance luciferase activity.
LMNA sequences (1278 bp of exon 11, intron 11 and 46 bp of […]) were PCR-amplified from either control or patient's cells genomic DNA with specific primer PCR fragments were purified with Concert Rapid PCR purification system (Invitrogen) and subcloned at the BamHI and EcoRI restriction sites of the pSppβm3 S1 plasmid containing the βGlobin cassette (Labourier et al., 1999—Recognition of exonic splicing enhancer sequences by the Drosophila splicing repressor RSF1. Nucleic Acids Res. 27, 2377-2386) to give the βGlo3S1LMNAwt and βGlo3S1LMNAmut constructs. The chimeric (3Glo-LMNA sequences were then inserted into the pcDNA3.1D/V5-His-TOPO vector (Invitrogen) to be used in transfection and in vitro splicing experiments. A single initiation codon ATG was kept in exon 11 of LMNA and LMNA sequences described above were fused at their 3′ end to Fyrefly luciferase cDNA (LMNAlucWT) in order that removal of intron 11 generates a transcript that encode a fusion protein harbouring luciferase activity, whereas usage of the cryptic splice site of mutated exon 11 (LMNAlucMut) will remove the initiation codon preventing luciferase expression. Both sequences were cloned in pcDNA3 Flp-In vector (Invitrogen).
A stable 293 cell line containing a single copy of LMNAlucMut minigene was obtained using the Flp-In system from (Invitrogen) according to manufacture procedure. Several clones were obtained and only one clone was used to screen the whole chemical library (293FLP LMNA LUC cells #8).
In a 96 Well Plate sterile, V-shape one put […] of drug compounds at 50 mM and then add 49.5 μl of 10% DMSO.
One pipets […] of drug at 500 μM and adds 200 μL of DMEM+Hygromycin B. At this stage the concentration of drug compound is 10 μM. One shares out 100 μl in a 96 Well Microplate sterile, flat bottom (further called luciferase plate) and 50 μl in other one (further called toxicity plate).
One washes 293FLP LMNA LUC cells once with D-PBS then adds 1 ml trypsin EDTA. Incubation at 37° C. for 2-3 minutes is proceeded. Then one adds 9 ml DMEM (with 10% FCS, P/S).
Cell concentration is brought at 10^5 cells per ml with DMEM+Hygromycin B to have 10^4 cells per 100 μl.
100 μl of suspension cells is added (at 10^4 cells per 100 μl) so final concentration of compounds is […].
Medium of the wells is gently removed then washed once by adding slowly 150 μl of D-PBS 1×. D-PBS is removed. 40 μl of PLB 1× is added and incubated at RT for 30 minutes. […]

[2] = tested on: HIV-1; test: Inhibition of HIV-1 production (p24 antigen) in infected peripheral blood mononuclear cells (PBMCs); format: cell-based, HIV-1 (AdaM) in PBMCs of healthy donors; conditions: for Inhibition of p24 production in HIV infected PBMCs from different donors: tested molecules at 10 μM, p24 after 3 and 6 days of infection, number of donors with inhibition out of donors tested; for IC50: Human immunodeficiency virus 1, PBMC, p24 production in HIV infected PBMCs, dose response curves
Protocol: Within this framework, the peripheral blood mononuclear cells (PBMCs) of healthy donors are isolated by centrifugation on a FICOLL gradient. The cells are then cultivated to a density of 2.5×10^6 cells/ml with RPMI medium supplemented with 1% inactivated human AB serum, then incubated at 37° C., 5% CO2 for an additional hour. The peripheral blood mononuclear cells are then recovered and cultivated for two days in RPMI medium supplemented with 10% fetal calf serum.
A standard experiment using 96 plates to test 30 molecules in triplicates including positive and negative controls, is performed as follows:
50 10^6 Ficoll purified PBMCs (10% DMSO 90% FCS) are washed with RPMI 10% FCS and resuspended in 25 ml of RPMI 10% FCS, glutamax containing 1000 U/ml of IL2 and 5 μg/ml PHA. The cells are then incubated for 3 days at 37° C. before to be washed with 50 ml PBS then with 50 ml RPMI 10% FCS. The cells are resuspended in 100 μl of RPMI 10% FCS containing 100 U/ml IL2 and seeded in 96 wells (1.5 10^5 cells/well). Viral infection is performed with 1 ng of AdaM/well. 100 μl of tested molecules at concentration of 10 μM are added to each well. Virus production is determined by p24 antigen immunosorbent assays after 3 and 6 days of infection (Kit Innogenetics). Typically PBMCs are prepared from several healthy donors (around 11 different donors). Dose response curves were then established with selected compounds to determine IC50.

SMILES: Cc1cccc(Nc2cc(C)c3ccccc3n2)n1 [Compound 45, 4-methyl-N-(6-methylpyridin-2-yl)quinolin-2-amine]
- fold induction at 5 µM [1]: 3.08
- Inhibition of p24 production in HIV infected PBMCs from different donors [2]: 4 out of 4 donnors

SMILES: Cc1cc(OC(F)(F)F)ccc1Nc1ccc2ccccc2n1 [Compound 82, N-[2-methyl-4-(trifluoromethoxy)phenyl]quinolin-2-amine]
- fold induction at 5 µM [1]: 3.41
- Inhibition of p24 production in HIV infected PBMCs from different donors [2]: 4 out of 4 donnors

SMILES: Fc1cccc(Nc2ccc3ccccc3n2)c1 [Compound 86, N-(3-fluorophenyl)quinolin-2-amine]
- fold induction at 5 µM [1]: 2.77
- Inhibition of p24 production in HIV infected PBMCs from different donors [2]: 3 out of 4 donnors

SMILES: FC(F)(F)Oc1cccc(Nc2ccc3cccc(Cl)c3n2)c1 [Compound 87, 8-chloro-N-[3-(trifluoromethoxy)phenyl]quinolin-2-amine]
- Inhibition of p24 production in HIV infected PBMCs from different donors [2]: 4 out of 4 donnors

SMILES: Fc1cccc(Nc2ccc3cccc(Cl)c3n2)c1 [Compound 88, 8-chloro-N-(3-fluorophenyl)quinolin-2-amine]
- Inhibition of p24 production in HIV infected PBMCs from different donors [2]: 4 out of 4 donnors

SMILES: FC(F)(F)Oc1ccc(Nc2ccc3cccc(Cl)c3n2)cc1 [Compound 90, 8-chloro-N-[4-(trifluoromethoxy)phenyl]quinolin-2-amine]
- IC50 [2]: 0.1 nM
- Inhibition of p24 production in HIV infected PBMCs from different donors [2]: 8 out of 10 donnors

SMILES: Cc1cc2ccccc2nc1Nc1cccc(OC(F)(F)F)c1 [Compound 92, 3-methyl-N-[3-(trifluoromethoxy)phenyl]quinolin-2-amine]
- Inhibition of p24 production in HIV infected PBMCs from different donors [2]: 3 out of 5 donnors

SMILES: FC(F)(F)Oc1ccc(Nc2ccc3cc(Cl)ccc3n2)cc1 [Compound 96, 6-chloro-N-(4-(trifluoromethoxy)phenyl)quinolin-2-amine]
- Inhibition of p24 production in HIV infected PBMCs from different donors [2]: 5 out of 6 donnors

SMILES: FC(F)(F)Oc1ccc(Nc2ccc3cccc(Cl)c3n2)cc1Cl [Compound 104, 8-chloro-N-[3-chloro-4-(trifluoromethoxy)phenyl]quinolin-2-amine]
- Inhibition of p24 production in HIV infected PBMCs from different donors [2]: 4 out of 4 donnors

SMILES: O=[N+]([O-])c1cccnc1Nc1cnc2ccccc2c1 [Compound 106, N-(3-nitropyridin-2-yl)quinolin-3-amine]
- fold induction at 5 µM [1]: 2.77
- IC50 [2]: 0.5 nM
- Inhibition of p24 production in HIV infected PBMCs from different donors [2]: 6 out of 6 donnors

SMILES: Clc1ccc2nc(Nc3cnccn3)ccc2c1 [Compound 109, 6-chloro-N-(pyrazin-2-yl)quinolin-2-amine]
- fold induction at 5 µM [1]: 2.79
- Inhibition of p24 production in HIV infected PBMCs from different donors [2]: 8 out of 8 donnors

SMILES: Clc1cccc2ccc(Nc3cnccn3)nc12 [Compound 112, 8-chloro-N-(pyrazin-2-yl)quinolin-2-amine]
- IC50 [2]: 0.1 nM
- Inhibition of p24 production in HIV infected PBMCs from different donors [2]: 12 out of 13 donnors

SMILES: Cc1ccnc(Nc2cnc3ccccc3n2)c1 [Compound 136, N-(4-methylpyridin-2-yl)quinoxalin-2-amine]
- fold induction at 5 µM [1]: 5.2
- Inhibition of p24 production in HIV infected PBMCs from different donors [2]: 6 out of 8 donnors

SMILES: Cc1ccnc(Nc2nc3ccccc3nc2C(F)(F)F)c1 [Compound 139, N-(4-methylpyridin-2-yl)-3-(trifluoromethyl)quinoxalin-2-amine]
- Inhibition of p24 production in HIV infected PBMCs from different donors [2]: 4 out of 4 donnors

SMILES: Cc1c(Cl)cnc(Nc2cnc3ccccc3n2)c1Cl [Compound 140, N-(3,5-dichloro-4-methylpyridin-2-yl)quinoxalin-2-amine]
- Inhibition of p24 production in HIV infected PBMCs from different donors [2]: 4 out of 4 donnors

SMILES: Cc1ccnc(Nc2cnc3ccccc3n2)c1[N+](=O)[O-] [Compound 141, N-(4-methyl-3-nitropyridin-2-yl)quinoxalin-2-amine]
- Inhibition of p24 production in HIV infected PBMCs from different donors [2]: 4 out of 4 donnors

From patent US10975063B2, “Compound, and production method thereof, and methods of treatment using the compound” (ABIVAX, priority 2009, dated 2021)
